Consider one compound from US20080058310A1, “High-density lipoprotein-cholesterol level elevating agent” (Takeda Pharmaceutical Company Limited, priority 2000, published 2008).

The test system of assay [1] is WHHL (Watanabe heritable hyperlipidemic) rabbits. Briefly: Blood lipid levels in WHHL (LDL receptor-deficient) rabbits fed the compound in feedstuff for 14 days (Test Example 2). It is filed as in vivo, rabbit. The note with it: Means ± SEM (n = 6). How it is done:
WHHL (Watanabe heritable hyperlipidemic) rabbits (2 to 3 months-old, four male, eight female), LDL receptor-deficient animal were used. The body weight was measured. Blood was then taken from the ear central artery, and the total cholesterol (TC) and triglyceride (TG) in blood plasma were measured using Wako Pure Chemical kit (manufactured by Wako Pure Chemicals, Inc.) and an autoanalyzer (Hitachi 7070). The animals were divided into two groups, each of which consisted of six animals. The subject compound was mixed with a basic feedstuff (RC-4, Oriental Yeast, Co., Ltd) in an amount of 0.2%, and the mixed feedstuff was fed to the animals in an amount of 120 g per a day (corresponds to the amount of 100 mg/kg/day). To the control group was fed basic feedstuff in an amount of 120 g per a day. The blood lipid levels at the starting of administration and after finishing the administration for 14 days are shown in Table 2 and Table 3, respectively.

The test system of the next assay is common marmosets. The experiment in a line: Plasma lipid change in common marmosets after four days of oral administration (Test Example 1). It is filed as in vivo, common marmoset. The note with it: male common marmosets, 100 mg/kg/day oral once a day for four days, blood plasma on fifth day, Means ± SEM (N = 5). How it is done: Male common marmosets (300-500 g) were bred while feeding normal feed (CMS-1, CLEA Japan, Inc.) and water freely. The body weight was measured. Blood was taken from the femoral vein, and the total cholesterol (TC), HDL-cholesterol (HDL-C) and triglyceride (TG) in blood plasma were measured using Wako Pure Chemical kit (manufactured by Wako Pure Chemicals, Inc.) and an autoanalyzer (Hitachi 7070). The animals were devided into groups, each of which consisted of five animals. The subject compound, as a suspension in 0.5% methylcellulose, was forced oral administration to the animals once a day and for four days. On the morning of the fifth day, the body weight was measured. Blood was then taken from the femoral vein, and the total cholesterol, triglyceride and HDL-cholesterol in blood plasma were measured according to the above-mentioned method. The non-HDL-C was calculated by subtracting the HDL-cholesterol from the total cholesterol.

Where [2] appears, read: 0.2% in feed (corresponds to 100 mg/kg/day), after 14 days relative to initial.
Setting [3] is: 0.2% in feed (corresponds to 100 mg/kg/day), after administration for 14 days.
Setting [4] is: blood plasma at the starting of administration (baseline) of the 0.2% in feed group.

Each structure is given as a SMILES string.

In the case of `COc1cccc([C@H]2O[C@H](CC(=O)N3CCC(CC(=O)O)CC3)C(=O)N(CC(C)(C)COC(C)=O)c3ccc(Cl)cc32)c1OC` [subject compound, N-[[(3R,5S)-1-(3-acetoxy-2,2-dimethylpropyl)-7-chloro-5-(2,3-dimethoxyphenyl)-2-oxo-1,2,3,5-tetrahydro-4,1-benzoxazepin-3-yl]acetyl]piperidine-4-acetic acid], in assay [1] (setting [2]), the “TC % of initial” value turned out to be 85 ± 2 % and the “TG % of initial” value is given as 40 ± 3 %. Moreover, in assay [1] (setting [3]), the “TC (mg/dL) end” value came out at 715 ± 36 mg/dL and the “TG (mg/dL) end” value is 107 ± 10 mg/dL. Also, in assay [1] (setting [4]), the “TC (mg/dL) initial” value was 838 ± 45 mg/dL and the “TG (mg/dL) initial” value is reported as 272 ± 24 mg/dL. In the assay on common marmosets, the “HDL-C (%-change)” value stood at 16.2 ± 10% and the “TG (%-change)” value is reported as −37.6 ± 17%. The “Non-HDL-C (%-change)” value in the assay with common marmosets (non-HDL-C = total cholesterol minus HDL-cholesterol) is on record as −40.4 ± 4 %.
